Results on 17 compounds are retold here after US4814340A, “1,4-diaryl alkane derivatives having insecticidal and acaricidal activity” (priority 1982, dated 1989).

Where two headings read alike, the source gives them in different places.

Series [1] has as its system green rice leafhopper (female adults). The series is described as follows: Test 2 (Effect on Green Rice Leafhopper). It is filed as in vivo. The note with it: 48 hours, marked * in Table 3.
The test system of another series is yearling carps. Briefly: Test 5 (Fish Toxicity). It is filed as in vivo, carp. How it is done:
(§1) Compounds (a) through (g) described below were tested as comparative compounds in the same manner as the compounds of the present invention. All the tests were doubly carried out. Namely, each result was expressed by an average value of two data.
A water tank having a width of 60 cm, a length of 30 cm and a height of 40 cm was filled with water, and 10 yearling carps having a body length of about 5 cm were set free in the tank and adapted to the environment in the tank. An acetone solution of a test compound was applied into water so as to become a concentration of 1 or 0.1 ppm in water by adding said acetone solution at a rate of one part by volume per 100 parts by volume of water. 48 hours after, the number of killed and living carps was counted and the effect of a test compound on carps was examined.

Another series deals with plants of Solanacede. The series is described as follows: phytotoxicity to plants of Solanacede.
Series [2] relates to common cutworm (third-instar larvae). The series is described as follows: Test 1 (Effect on Common Cutworm). It is filed as in vivo. The note with it: Spodoptera litura, 48 hours, third-instar larvae, read-out: Mortality (%). How it is done:
as §1
The emulsifiable concentrate of the test compound, prepared according to the method described in Formulation Example 1, was diluted with water to a specified concentration. Sweet potato leaves were sufficiently immersed in the dilution. The sweet potato leaves were dried and placed in a plastic cup having a diameter of 10 cm, and 10 third-instar larvae of common cutworm were set free in each cup. 48 hours after, the numbers of killed and living larvae were counted and the mortality was calculated.

Series [3] concerns green rice leafhopper (female adults). The series is described as follows: Test 2 (Effect on Green Rice Leafhopper). It is filed as in vivo. The settings on record: Nephotettix cincticeps, 48 hours, female adults, read-out: Mortality (%). How it is done:
as §1
Four or five seedlings of paddy rice with three leaves were bundled, and thereon the same dilution of the emulsifiable concentrate as used in Test 1 was sprayed in an amount of 3 ml. The bundle was dried and covered with a metal net cylinder, and 10 female adults of green rice leafhopper were set free in the cylinder. 48 hours after, the number of killed adults was counted.

Series [4] concerns two-spotted spider mite (adults). The series is described as follows: Test 4 (Effect on Two-Spotted Spider Mite). The class given is in vivo. The settings on record: Tetranychus urticae; 200 ppm; 24 hours; adults; read-out: Mortality (%). How it is done:
as §1
A kidney bean leaf disc (20 mm in diameter) perforated with a cork borer was placed on water-impregnated absorbent cotton, and thereon 20 adults of two-spotted spider mite were set free, and the resulting set was allowed to stand around the clock. The same dilution of the emulsifiable concentrate of a test compound having a concentration of 200 ppm as used in Test 1 and Test 2, was applied by an applicator having a diameter of 20 cm and a height of 60 cm in an amount of 3 ml. 24 hours after, the number of killed adults was counted.

Series [5] deals with German cockroach (female adults). Briefly: Test 3 (Effect on German Cockroach). The note with it: Blattella germanica. The class given is in vivo, Blatella germanica (German cockroach). How it is done:
as §1
One ml of an acetone solution of a test compound of a specified concentration was poured in a high Petri dish having a diameter of 9 cm and a height of 9 cm. The Petri dish was allowed to stand, and thereby the acetone was evaporated. The upper part of the inner wall of the Petri dish was treated with butter to prevent the adults of German cockroach from escaping from the Petri dish. 10 female adults of German cockroach were set free in each Petri dish. 48 hours after, the number of killed adults was counted.

Where [6] appears, read: 1 mg/m^2, 48 hours, female adults, read-out: Mortality (%).
Where [7] appears, read: 5 mg/m^2, 48 hours, female adults, read-out: Mortality (%).

For the compound “1-(3-Benzoylphenyl)-4-(4-chlorophenyl)-4-methylpentane [Compound 11]”, the “Rate of Number of Adults KnockedDown” value in series [1] (20 ppm) came to 60%; in series [1] (100 ppm) it was 90%.
With `CC(C)C(C(=O)OC(C#N)c1cccc(Oc2ccccc2)c1)c1ccc(Cl)cc1` (centres unmarked) [(g), Fenvalerate, reference compound], the “Mortality(%) 48 Hours After” value in the series with yearling carps (0.1 ppm in water) and with yearling carps (1 ppm in water) was 100% throughout. Further, the “phytotoxicity to plants of Solanacede” value with plants of Solanacede is recorded as “observed”.
`CC(C)Oc1ccc(C(C)(C)CCCc2cccc(Oc3ccccc3)c2)cc1` [Compound 9, 1-(3-phenoxyphenyl)-4-(4-isopropoxyphenyl)-4-methylpentane]: the mortality at 20 ppm in series [2] and in series [3] was 100% each time. Also, the mortality at 100 ppm in series [2] and in series [3] was 100% throughout. Moreover, the mortality at 200 ppm in series [4] stood at 100%.
Consider `CCOc1ccc(C(C)(C)CCCN2C(=O)C3=C(CCCC3)C2=O)cc1` [Compound 12, 1-(3,4,5,6-Tetrahydrophthalimido)-4-(4-ethoxyphenyl)-4-methylpentane], for which the “Rate of Number of Adults KnockedDown” value in series [1] (20 ppm) is listed as 40%; in series [1] (100 ppm) it was 80%.
In the case of `CCOc1ccc(C(C)(C)CCCc2cccc(Oc3ccccc3)n2)cc1` [Compound 19], in series [2], the mortality at 20 ppm came out at 70% and the mortality at 100 ppm stood at 100%. Besides, the mortality at 200 ppm in series [4] amounted to 43%.
With `CC(C)(CCCc1ccc(F)c(Oc2ccccc2)c1)c1ccc(Cl)cc1` [Compound 20], the mortality at 20 ppm in series [2] and in series [3] was 100% each time. Besides, the mortality at 100 ppm in series [2] and in series [3] was 100% in each case. Moreover, the mortality at 1 mg/m2 in series [5] (setting [6]) came out at 100%. For the same compound, the mortality at 5 mg/m2 in series [5] (setting [7]) turned out to be 100%. Moreover, in series [4], the mortality at 200 ppm turned out to be 100%. For the same compound, the “Mortality(%) 48 Hours After” value with yearling carps (0.1 ppm in water) and in the series with yearling carps (1 ppm in water) was 0% in each case.
Take `CCOc1ccc(C(C)(C)CCCc2cccc(Oc3ccccc3)c2)cc1` [Compound 24]: the mortality at 20 ppm in series [2] and in series [3] was 100% in each case. The mortality at 100 ppm in series [2] and in series [3] was 100% each time. The mortality at 1 mg/m2 in series [5] (setting [6]) worked out at 100%. Also, in series [5] (setting [7]), the mortality at 5 mg/m2 amounted to 100%. Moreover, in series [4], the mortality at 200 ppm came out at 95%. For the same compound, the “Mortality(%) 48 Hours After” value in the series with yearling carps (0.1 ppm in water) and in the series with yearling carps (1 ppm in water) was 0% each time.
Turning to `CC(C)(CCCc1cccc(Oc2ccccc2)c1)c1ccc(OC(F)(F)CCl)cc1` [Compound 35], in series [2], the mortality at 20 ppm was determined as 100% and the mortality at 100 ppm amounted to 100%. In series [5] (48 h), this compound registered a mortality at 1 mg/m2 of 70% and a mortality at 5 mg/m2 of 100%. For the same compound, the mortality at 200 ppm in series [4] stood at 85%. Also, the “Mortality(%) 48 Hours After” value in the series with yearling carps (0.1 ppm in water) worked out at 0%. Also, the “Mortality(%) 48 Hours After” value in the series with yearling carps (1 ppm in water) was determined as 0%.
Take `CC(C)(C)c1ccc(C(C)(C)CCCc2ccc(F)c(Oc3ccccc3)c2)cc1` [Compound 44]: in series [2], the mortality at 20 ppm amounted to 40% and the mortality at 100 ppm turned out to be 90%. Moreover, the mortality at 200 ppm in series [4] is 85%.
In the case of `CCc1ccc(C(C)(C)CCCc2ccc(F)c(Oc3ccccc3)c2)cc1` [Compound 52], in series [2], the mortality at 20 ppm amounted to 100% and the mortality at 100 ppm turned out to be 100%. Further, in series [3], the mortality at 20 ppm is 100% and the mortality at 100 ppm was determined as 100%. Further, in series [5] (setting [6]), the mortality at 1 mg/m2 worked out at 70%. In series [5] (setting [7]), the mortality at 5 mg/m2 is 100%. In addition, the mortality at 200 ppm in series [4] came out at 100%.
As for `CC(C)(CCCc1ccc(F)c(Oc2ccc(F)cc2)c1)c1ccc(Cl)cc1` [Compound 53], in series [3], the mortality at 20 ppm was 100% and the mortality at 100 ppm turned out to be 100%. For the same compound, the mortality at 1 mg/m2 in series [5] (setting [6]) came to 80%. The mortality at 5 mg/m2 in series [5] (setting [7]) worked out at 100%. In addition, in series [4], the mortality at 200 ppm turned out to be 100%.
For the compound `CC(C)(CCC(C#N)c1cccc(Oc2ccccc2)c1)c1ccc(Cl)cc1` (centres unmarked) [Compound 54, 1-(3-Phenoxyphenyl)-1-cyano-4-(4-chlorophenyl)-4-methylpentane], the mortality at 20 ppm in series [2] came to 45%; in series [3] it was 50%. The mortality at 100 ppm in series [2] and in series [3] was 90% in each case. Also, the mortality at 200 ppm in series [4] worked out at 100%.
For the compound `CC(C)c1ccc(C(C)(C)CCCc2ccc(F)c(Oc3ccccc3)c2)cc1` [Compound 56], in series [3], the mortality at 20 ppm was found to be 100% and the mortality at 100 ppm is 100%. For the same compound, the mortality at 1 mg/m2 in series [5] (setting [6]) came out at 40%. For the same compound, the mortality at 5 mg/m2 in series [5] (setting [7]) was found to be 100%. In series [4], the mortality at 200 ppm stood at 100%.
Take `CCOc1ccc(C(C)(C)CCCc2ccc(F)c(Oc3ccccc3)c2)cc1Cl` [Compound 57]: the mortality at 20 ppm in series [2] and in series [3] was 100% in each case. For the same compound, the mortality at 100 ppm in series [2] and in series [3] was 100% each time. Further, the mortality at 1 mg/m2 in series [5] (setting [6]) came to 100%. For the same compound, the mortality at 5 mg/m2 in series [5] (setting [7]) is 100%. In addition, the mortality at 200 ppm in series [4] came to 91%. For the same compound, the “Mortality(%) 48 Hours After” value in the series with yearling carps (0.1 ppm in water) and in the series on yearling carps (1 ppm in water) was 0% each time.
As for `CC(C)(CCCc1cccc(Oc2ccccc2)c1)c1ccc(OCCF)cc1` [Compound 60], in series [2], the mortality at 20 ppm worked out at 90% and the mortality at 100 ppm turned out to be 100%. In series [3], the mortality at 20 ppm is 100% and the mortality at 100 ppm was determined as 100%. In addition, in series [4], the mortality at 200 ppm was found to be 90%.
Turning to `CCOC(=O)c1ccc(C(C)(C)CCCc2cccc(Oc3ccccc3)c2)cc1` [Compound 64], in series [2], the mortality at 20 ppm was 40% and the mortality at 100 ppm turned out to be 90%. Also, the mortality at 200 ppm in series [4] is 70%.
As for `CC(C)(CCCc1ccc(F)c(Oc2ccccc2)c1)c1ccc(OC(F)(F)C(F)F)cc1` [Compound 66], the mortality at 20 ppm in series [2] and in series [3] was 100% throughout. The mortality at 100 ppm in series [2] and in series [3] was 100% each time. In addition, the mortality at 1 mg/m2 in series [5] (setting [6]) worked out at 65%. In series [5] (setting [7]), the mortality at 5 mg/m2 stood at 100%. The mortality at 200 ppm in series [4] amounted to 100%.

As usually defined, the mortality is the percentage killed.
